Test results as given in the NIST ThermoML archive (doi:10.1016/j.jct.2015.04.027).

Assay: xn = mol fraction of the nth substance listed
Details: 100 kPa, Liquid; for viscosity: Falling or rolling sphere viscometry; for mass density: Vibrating tube method

CN(C)C(=[NH2+])N(C)C.c1c[n-]cn1 [1,1,3,3-tetramethylguanidinium imidazol-1-ide] + CCCCO
Details | mass density, 293.15 K [kg/m3] | mass density, 298.15 K [kg/m3] | mass density, 303.15 K [kg/m3] | mass density, 308.15 K [kg/m3] | mass density, 313.15 K [kg/m3] | viscosity, 293.15 K [mPa·s] | viscosity, 298.15 K [mPa·s] | viscosity, 303.15 K [mPa·s] | viscosity, 308.15 K [mPa·s] | viscosity, 313.15 K [mPa·s]
x1 = 0.0499 | 828.74 | 824.87 | 820.97 | 817.04 | 813.07 | 3.053 | 2.7 | 2.399 | 2.141 | 1.92
x1 = 0.1004 | 845.73 | 841.79 | 837.82 | 833.83 | 829.83 | 3.248 | 2.868 | 2.549 | 2.276 | 2.04
x1 = 0.1999 | 875.01 | 870.95 | 866.87 | 862.77 | 858.67 | 3.727 | 3.272 | 2.89 | 2.569 | 2.298
x1 = 0.2997 | 899.57 | 895.41 | 891.24 | 887.07 | 882.9 | 4.41 | 3.801 | 3.323 | 2.931 | 2.604
x1 = 0.3985 | 920.24 | 916.05 | 911.78 | 907.55 | 903.31 | 5.155 | 4.414 | 3.823 | 3.343 | 2.948
x1 = 0.4997 | 938.26 | 933.99 | 929.7 | 925.4 | 921.09 | 6.003 | 5.029 | 4.322 | 3.751 | 3.286
x1 = 0.6499 | 960.31 | 955.97 | 951.62 | 947.27 | 942.92 | 7.076 | 5.887 | 5 | 4.267 | 3.737
x1 = 0.8002 | 978.39 | 974 | 969.59 | 965.19 | 960.8 | 8.02 | 6.617 | 5.547 | 4.739 | 4.097
x1 = 0.9004 | 988.56 | 984.14 | 979.72 | 975.28 | 970.84 | 8.6 | 7.032 | 5.877 | 5.021 | 4.299
x1 = 1 | 997.25 | 992.8 | 988.35 | 983.9 | 979.46 | 8.952 | 7.287 | 6.044 | 5.097 | 4.358

CN(C)C(=[NH2+])N(C)C.c1c[n-]cn1 [1,1,3,3-tetramethylguanidinium imidazol-1-ide] + CCCO
Details | mass density, 293.15 K [kg/m3] | mass density, 298.15 K [kg/m3] | mass density, 303.15 K [kg/m3] | mass density, 308.15 K [kg/m3] | mass density, 313.15 K [kg/m3] | viscosity, 293.15 K [mPa·s] | viscosity, 298.15 K [mPa·s] | viscosity, 303.15 K [mPa·s] | viscosity, 308.15 K [mPa·s] | viscosity, 313.15 K [mPa·s]
x1 = 0.0499 | 828.16 | 824.06 | 819.94 | 815.79 | 811.6 | 2.428 | 2.146 | 1.91 | 1.707 | 1.532
x1 = 0.0999 | 849.03 | 844.89 | 840.71 | 836.52 | 832.3 | 2.667 | 2.354 | 2.095 | 1.873 | 1.682
x1 = 0.2002 | 882.18 | 877.95 | 873.7 | 869.43 | 865.15 | 3.294 | 2.886 | 2.55 | 2.268 | 2.029
x1 = 0.2996 | 907.96 | 903.66 | 899.35 | 895.03 | 890.71 | 4.062 | 3.516 | 3.078 | 2.712 | 2.406
x1 = 0.4002 | 928.67 | 924.33 | 919.98 | 915.62 | 911.26 | 4.872 | 4.168 | 3.606 | 3.154 | 2.778
x1 = 0.4988 | 945.34 | 940.97 | 936.59 | 932.2 | 927.81 | 5.686 | 4.798 | 4.126 | 3.577 | 3.129
x1 = 0.6264 | 962.87 | 958.47 | 954.06 | 949.65 | 945.24 | 6.646 | 5.548 | 4.716 | 4.052 | 3.512
x1 = 0.8001 | 981.42 | 976.99 | 972.55 | 968.12 | 963.7 | 7.842 | 6.46 | 5.443 | 4.625 | 3.991
x1 = 0.9006 | 990.16 | 985.73 | 981.29 | 976.85 | 972.41 | 8.401 | 6.898 | 5.825 | 4.927 | 4.225
x1 = 1 | 997.25 | 992.8 | 988.35 | 983.9 | 979.46 | 8.952 | 7.287 | 6.044 | 5.097 | 4.358

CN(C)C(=[NH2+])N(C)C.c1c[n-]cn1 [1,1,3,3-tetramethylguanidinium imidazol-1-ide] + CCO
Details | mass density, 293.15 K [kg/m3] | mass density, 298.15 K [kg/m3] | mass density, 303.15 K [kg/m3] | mass density, 308.15 K [kg/m3] | mass density, 313.15 K [kg/m3] | viscosity, 293.15 K [mPa·s] | viscosity, 298.15 K [mPa·s] | viscosity, 303.15 K [mPa·s] | viscosity, 308.15 K [mPa·s] | viscosity, 313.15 K [mPa·s]
x1 = 0.0483 | 821.2 | 816.85 | 812.47 | 808.06 | 803.63 | 1.422 | 1.289 | 1.174 | 1.072 | 0.982
x1 = 0.0999 | 848.92 | 844.52 | 840.1 | 835.66 | 831.19 | 1.714 | 1.548 | 1.405 | 1.28 | 1.17
x1 = 0.2003 | 888.15 | 883.71 | 879.24 | 874.77 | 870.28 | 2.371 | 2.114 | 1.897 | 1.711 | 1.549
x1 = 0.3001 | 916.24 | 911.78 | 907.3 | 902.82 | 898.33 | 3.145 | 2.755 | 2.438 | 2.173 | 1.949
x1 = 0.3999 | 937.23 | 932.77 | 928.29 | 923.8 | 919.31 | 4.057 | 3.498 | 3.054 | 2.69 | 2.388
x1 = 0.5 | 953.33 | 948.83 | 944.31 | 939.83 | 935.34 | 5.057 | 4.296 | 3.643 | 3.174 | 2.822
x1 = 0.643 | 970.7 | 966.31 | 961.81 | 957.39 | 952.91 | 6.351 | 5.318 | 4.452 | 3.891 | 3.384
x1 = 0.7966 | 984.34 | 979.99 | 975.53 | 971.06 | 966.6 | 7.695 | 6.345 | 5.333 | 4.539 | 3.911
x1 = 0.8987 | 991.38 | 986.93 | 982.47 | 978.02 | 973.57 | 8.46 | 6.936 | 5.786 | 4.909 | 4.229
x1 = 1 | 997.25 | 992.8 | 988.35 | 983.9 | 979.46 | 8.952 | 7.287 | 6.044 | 5.097 | 4.358

CN(C)C(=[NH2+])N(C)C.c1c[n-]cn1 [1,1,3,3-tetramethylguanidinium imidazol-1-ide] + CO
Details | mass density, 293.15 K [kg/m3] | mass density, 298.15 K [kg/m3] | mass density, 303.15 K [kg/m3] | mass density, 308.15 K [kg/m3] | mass density, 313.15 K [kg/m3] | viscosity, 293.15 K [mPa·s] | viscosity, 298.15 K [mPa·s] | viscosity, 303.15 K [mPa·s] | viscosity, 308.15 K [mPa·s] | viscosity, 313.15 K [mPa·s]
x1 = 0.0501 | 840.28 | 835.36 | 830.44 | 825.51 | 820.57 | 0.905 | 0.829 | 0.765 | 0.709 | 0.659
x1 = 0.1005 | 872.86 | 868.04 | 863.19 | 858.35 | 853.49 | 1.272 | 1.108 | 1.014 | 0.931 | 0.859
x1 = 0.1957 | 912.69 | 907.98 | 903.25 | 898.51 | 893.76 | 1.979 | 1.768 | 1.592 | 1.442 | 1.314
x1 = 0.2953 | 938.06 | 933.41 | 928.74 | 924.08 | 919.38 | 2.761 | 2.423 | 2.148 | 1.918 | 1.724
x1 = 0.393 | 954.84 | 950.24 | 945.62 | 941 | 936.36 | 3.723 | 3.212 | 2.804 | 2.468 | 2.192
x1 = 0.5005 | 968.24 | 963.68 | 959.1 | 954.53 | 949.94 | 4.794 | 4.098 | 3.53 | 3.077 | 2.702
x1 = 0.6431 | 980.21 | 975.69 | 971.16 | 966.63 | 962.09 | 6.21 | 5.186 | 4.369 | 3.783 | 3.274
x1 = 0.7815 | 988.47 | 983.99 | 979.49 | 975 | 970.51 | 7.421 | 6.122 | 5.141 | 4.38 | 3.777
x1 = 0.8994 | 993.77 | 989.31 | 984.84 | 980.37 | 975.91 | 8.342 | 6.826 | 5.692 | 4.819 | 4.134
x1 = 1 | 997.25 | 992.8 | 988.35 | 983.9 | 979.46 | 8.952 | 7.287 | 6.044 | 5.097 | 4.358
